Entries after “also recorded” stand apart in the source; their conditions may differ.
Tests used:
miRNA181a = experiment: Northern blot of miRNA181a in Meg-01 cells; type: cell-based, human; settings: in the presence or absence of Thapsi and/or AChmiON
Experimental: Cultured Meg-01 cells were co-incubated with thapsigargin (10 nM) and synthetic AChmiON (miR-181) (SEQ ID NO:23; at 100 nM) or anti-miR-181 (SEQ ID NO:24 (modified, identical in sequence to SEQ ID NO:2); at 100 nM.

Meg-01 cells [1] = experiment: DNA fragmentation by TUNEL assay in Meg-01 cells; type: cell-based, human
AChE-R mRNA = AChE-R mRNA level (RT-PCR, fluorescent in situ hybridization) in Meg-01 cells; type: cell-based, human; settings: for AChE-R mRNA level on co-administration with Thapsi: Thapsi 10 nM plus oligo 100 nM; for AChE-R mRNA level (RT-PCR): 24 hours; for AChE-R mRNA level by FISH (population distribution): agent alone
AChE-S mRNA = AChE-S mRNA level (fluorescent in situ hybridization) in Meg-01 cells; type: cell-based, human; settings: for AChE-S mRNA level on co-administration with Thapsi: Thapsi 10 nM plus oligo 100 nM; for AChE-S mRNA level by FISH: agent alone
AChmiRNA (miRNA-181a) = AChmiRNA (miRNA-181a) level by real-time RT-PCR in Meg-01 cells; type: cell-based, human; settings: for level of AChmiRNA: Meg-01 cells treated for 24 hours, agent alone
PKCβII = PKCβII immunocytochemistry in Meg-01 cells; type: cell-based, human; settings: 24 hours
Meg-01 cells [2] = experiment: Nuclear area measurement of Meg-01 cells; type: cell-based, human; settings: 24 hours
Bcl-2 = Bcl-2 immunostaining in Meg-01 cells; type: cell-based, human
activated caspase-9 = experiment: Activated caspase-9 immunostaining in Meg-01 cells; type: cell-based, human
Meg-01 cells [3] = experiment: Scanning electron microscopy of Meg-01 cell surface (megakaryocytic maturation); type: cell-based, human; settings: 24 hour treatment
Meg-01 cells [4] = experiment: Ploidy / DNA content of Meg-01 cells by FACS and propidium iodide; type: cell-based, human; settings: 72 hours
AChE-R = AChE-R protein immunocytochemistry in Meg-01 cells; type: cell-based, human; settings: 24 hours
AChE-S = AChE-S protein immunocytochemistry in Meg-01 cells; type: cell-based, human; settings: 24 hours
activated caspase-3 = experiment: Activated caspase-3 immunostaining in Meg-01 cells; type: cell-based, human; settings: 24 hours, agent alone
c-Myc = c-Myc immunohistochemistry in Meg-01 cells; type: cell-based, human
ASF/SF2 = experiment: Splice factor ASF/SF2 in Meg-01 cells; type: cell-based, human; settings: data not shown
Meg-01 cells [5] = experiment: Adhesion assay of MEG-01 cells; type: cell-based, human; settings: 72 hours
[6] = system: Murine macrophage RAW 264.7 cells; experiment: Nitric oxide production (nitrite, Griess) by RAW 264.7 macrophages; type: cell-based
Experimental: Murine macrophage RAW 264.7 cells were cultured in 48 well plates (50×10^3 cells per well). The production of NO by these macrophages was examined following various stimuli (6 repetitions for each treatment) at three time intervals (6, 12 and 24 hours) as depicted in FIGS. 27a, 27b and 27c.
Mouse RAW cells, human U937 cells and primary human macrophages were treated for 24 h with 1 μM CpG oligonucleotides or 1 μg/ml bacterial lipopolysaccharide added to standard growth medium
Interleukin 6 expression was assayed by QRT-PCR, nitric oxide was measured by Griess assay and prostaglandin E2 levels were measured by R&D ELISA kit according to manufacturer's instructions.

AChmiRNA = system: AChmiRNA; set-up: species or system mice; settings: mouse
AChE = AChE catalytic activity (Ellman) in RAW 264.7 cells; type: cell-based, murine

| Compound | DNA fragmentation / cell death (TUNEL) (Meg-01 cells [1]) | AChE-R mRNA level on co-administration with Thapsi (AChE-R mRNA) | AChE-S mRNA level on co-administration with Thapsi (AChE-S mRNA) | level of AChmiRNA (AChmiRNA (miRNA-181a)) | staining intensity for PKCβ (PKCβII) | nuclear area / nuclei size (Meg-01 cells [2]) | immunoreactivity of Bcl-2 (Bcl-2) | incidence of activated caspase-9 positive cells (activated caspase-9) | cell surface morphology (scanning electron microscopy) (Meg-01 cells [3]) | ploidy (DNA content) (Meg-01 cells [4]) | AChE-R protein level (immunohistochemistry) (AChE-R) | expression of the AChE-S variant (immunohistochemistry) (AChE-S) | incidence of activated caspase-3 positive cells (activated caspase-3) | AChE-R mRNA level (RT-PCR) (AChE-R mRNA) | AChE-R mRNA level by FISH (population distribution) (AChE-R mRNA) | AChE-S mRNA level by FISH (AChE-S mRNA) | cell adhesion (Meg-01 cells [5]) | other results |
| --- | --- | --- | --- | --- | --- | --- | --- | --- | --- | --- | --- | --- | --- | --- | --- | --- | --- | --- |
| anti-AChmiRNA: antisense oligonucleotide complementary to AChmiRNA (SEQ ID NO:2; modified SEQ ID NO:24) (ACUCACCGACAGCGUUGAAUGUU; modified, pattern not given here) | normal level of TUNEL staining | maintaining the increase in AChE-R mRNA | prevented the Thapsigargin-induced suppression of AChE-S mRNA |  |  |  |  |  |  |  |  |  |  |  |  |  |  | level of AChmiRNA (miRNA181a) by Northern blot (miRNA181a): decreased the level of anti-AChmiRNA; level of AChmiRNA (miRNA181a) by Northern blot (miRNA181a; listed as anti-miR181): reducing the level of miRNA181a in the presence or absence of Thapsi and/or AChmiON |
| C/C=C(/C)C(=O)O[C@H]1C(C)=C2[C@H]([C@@H]1OC(=O)CCCCCCC)[C@@](C)(OC(C)=O)C[C@H](OC(=O)CCC)[C@@]1(O)[C@H]2OC(=O)[C@@]1(C)O [Thapsi, Thapsigargin] | no significant changes |  |  | induced a decrease in AChmiRNA | increased staining intensity for PKCβ | increase in the nuclear area | decrease in the immunoreactivity of Bcl-2 | increased the incidence of positive cells for activated caspase-9 immunostaining | a very early stage in the formation of demarcation membranes | a bigger fraction of cells became polyploid | increase also in the protein level | decrease of expression of the AChE-S variant | increase in the incidence of activated caspase-3 positive cells | increasing the levels of AChE-R mRNA variant | rightward shift in the population distribution of labeling intensity; also recorded: increase in AChE-R mRNA level | decrease in AChE-S mRNA level | increased adhesion of treated cells | decrease in the levels of AChmiRNA (AChmiRNA (miRNA-181a); Meg-01 cells, Thapsi treatment (ER-calcium release), real-time RT-PCR): 50%; c-myc expression (c-Myc; agent alone): c-myc increase induced by Thapsi; splice factor ASF/SF2 (ASF/SF2): induced |
| ARP: human AChE-R C-terminal peptide GMQGPAGSGWEEGSGSPPGVTPLFSP (ARP peptide (synthetic)) | no significant changes |  |  | decreased the level of AChmiRNA | increased staining intensity for PKCβ | increased | decrease in the immunoreactivity of Bcl-2 | increased the incidence of positive cells for activated caspase-9 immunostaining | induced cell surface modifications | increased ploidy | increase also in the protein level | decrease of expression of the AChE-S variant | increased the fraction of cells immunopositive for activated caspase-3 | increased the level of AChE-R mRNA | rightward shift in the population distribution of labeling intensity |  |  |  |
| AChmiON: fully 2′-O-methylated oligonucleotide with the sequence of human/murine miRNA-181a (modified SEQ ID NO:23; unmodified SEQ ID NO:1) (AACAUUCAACGCUGUCGGUGAGU; all 2'-O-methyl, backbone not given here) | increased incidence of positive cells; also recorded: significantly increased apoptosis | inhibiting the increase in AChE-R mRNA level | keeping AChE-S mRNA level above control values |  |  |  |  |  |  |  |  |  |  |  | levels remained unchanged | increased the fraction of cells with high AChE-S levels | suppressed this effect | speed of the NO response ([6]; RAW 264.7, 6, 12 and 24 hours): slower than the response to LPS or IFN-γ; maximal NO effect relative to the LPS effect ([6]; RAW 264.7, 24 hour post-treatment, AChmiON 100 nM): about 80%; Nitrite concentration reflecting NO production ([6]; RAW 264.7, 24 hours, LPS 1 μg/ml, IFN-γ 4 ng/ml, oligos 100 nM): 38 µM; NO production versus control (in words) ([6]; RAW 264.7 macrophages): significantly up-regulated NO production; Thapsi-induced c-myc increase on co-treatment (c-Myc; Thapsi plus AChmiON): could not prevent the c-myc increase induced by Thapsi; Thapsi-induced ASF/SF2 on co-treatment (ASF/SF2; Thapsi plus AChmiON): suppressed part of this effect |
| CN1CC=C(c2ccccc2)CC1 [MPTP, 1-Methyl-4-phenyl-1,2,3,6-tetrahydropyridine] |  |  |  |  |  |  |  |  |  |  |  |  |  |  |  |  |  | AChmiRNA levels in vivo (AChmiRNA): decreases of AChmiRNA levels |
| C=CC[N+](C)(C)c1ccc(CCC(=O)CCc2ccc([N+](C)(C)CC=C)cc2)cc1.[Br-].[Br-] [BW284c51, 1,5-Bis(4-allyldimethylammoniumphenyl)pentan-3-one dibromide] |  |  |  |  |  |  |  |  |  |  |  |  |  |  |  |  |  | AChE activity (AChE; RAW 264.7 cells, 24 hr, LPS 1 μg/ml, BW 284 C51 10 μM (Example 13)): reduced AChE activity; AChE activity (AChE; macrophages (RAW 264.7), 1 micromolar BW284c51, 100 nanomolar CpG 1826): decrease |

— US20130317092A1 (priority 2007, published 2013)
